≈ marks a conversion by molar mass, not a printed value. Read-outs that look alike come from different tables or passages of the source.
Columns and labels:
[1] = test system: VRE; assay: Broth microdilution MIC; format: cell-based, vancomycin resistant Enterococcus faecium; conditions: Enterococcus
Description: (§1) Once it was determined that this specific 4,5-disubstitution pattern imparted microbicidal activity onto the 2-AI framework, this activity was quantified by measuring the MIC of each derivative against a variety of representative pathogenic bacterial strains using the microdilution protocol (CSLI, Performance Standards for Antimicrobial Suceptibility Testing; Nineteenth Informational Supplement, Clinical and Laboratory Standards Institute, Wayne, Pa., 2009). E. coli, MDRAB, P. aeruginosa, MRSA, MSSA, S. epidermidis and VRE were used for initial evaluation. From this screen, compound 15 was determined to be the lead compound and had MIC values (μg/mL) of 2, 2, 1, 0.5, 0.25, and 1 against E. coli, MDRAB, MRSA, VRE, S. Epidermidis and MSSA.
(§2) S. aureus (ATCC #29213), S. epidermidis (ATCC #29886), MRSA (ATCC # BAA-44), MDRAB (ATCC # BAA-1605), vancomycin resistant Enterococcus faecium (VRE) (ATCC #51559) and E. coli (ATCC #35695) were obtained from the ATCC. Mechanically difibrinated sheep blood (DSB100) was obtained from Hemostat Labs. Mueller-Hinton medium was purchased from Fluka (#70192).
(§3) Broth Microdilution Method for MIC Determination.

[2] = test system: E. coli; assay: Biofilm formation inhibition, crystal violet reporter assay; format: cell-based; conditions: Escherichia coli, 100 μM
Description: (§4) The ability of each member of the pilot library to inhibit either E. coli or MDRAB biofilm formation at 100 μM was assessed using a crystal violet reporter assay (O'Toole et al., Mol. Microbiol., 1998, 30: 295-304).
This is typically indicative of biofilm inhibition via a traditional microbicidal mechanism instead of a mechanism that modulates biofilm formation through non-microbicidal mechanisms. […] At this concentration, a 97% reduction in bacterial growth was observed.

[3] = test system: Rhodospirillum salexigens; assay: Marine bacteria microdilution MIC; conditions: Rhodothalassium salexigens, R. salexigens
[4] = test system: MSSA; assay: Broth microdilution MIC; format: cell-based, S. aureus; conditions: Staphylococcus aureus
Description: as §1, §2, §3

[5] = test system: Vibrio vulnificus; assay: Marine bacteria microdilution MIC; conditions: Vibrio vulnificus, V. vulnificus
[6] = test system: E. coli; assay: Broth microdilution MIC; format: cell-based; conditions: Escherichia coli
Description: as §1, §2, §3

[7] = test system: MDRAB; assay: Broth microdilution MIC; format: cell-based
Description: as §1, §2, §3

[8] = test system: S. epidermidis; assay: Broth microdilution MIC; format: cell-based
Description: as §1, §2, §3

[9] = test system: Vibrio cholerae; assay: Marine bacteria microdilution MIC; format: cell-based; conditions: Vibrio cholerae, V. cholerae
[10] = test system: MDRAB; assay: Biofilm formation inhibition, crystal violet reporter assay; format: cell-based
Description: as §4

[11] = test system: MRSA; assay: Broth microdilution MIC; format: cell-based, methicillin-resistant S. aureus; conditions: Staphylococcus aureus
Description: as §1, §2, §3

[12] = test system: Listonella anguillarum; assay: Marine bacteria microdilution MIC; conditions: Vibrio anguillarum, L. anguillarum
[13] = test system: all of the test strains; assay: Antibiotic activity (MIC) of control 2-aminoimidazoles against the test strains; format: cell-based
Description: To examine the necessity of the 4,5-disubstitution pattern for antimicrobial activity of the 2-aminoimidazole scaffold, two monosubstituted 2-aminoimidazole analogues of compound 19 were synthesized and screened alongside the parent 2-aminoimidazole for antibiotic activity (Scheme 2). Heptanoic acid and phenylhexanoic acid were treated with oxalyl chloride with catalytic dimethyl formamide in dichloromethane to produce the respective acid chlorides, which were then reacted with diazomethane and quenched with hydrobromic acid to make the respective alpha-bromo ketones. These alpha-bromo ketones were separately cyclized with boc-guanidine, providing a boc-protected 2-aminoimidazole scaffold that was subsequently deprotected upon treatment with trifluoroacetic acid in dichloromethane to yield 22 and 23.
as §3

[14] = Staphylococcus epidermidis, read-out: MIC

| SMILES | MIC [1] [µg/mL] | inhibition at 100 µM [2] [%] | MIC [3] [µg/mL] | MIC [4] [µg/mL] | MIC [5] [µg/mL] | MIC [6] [µg/mL] | MIC [7] [µg/mL] | MIC [8, 14] [µg/mL] | MIC [9] [µg/mL] | inhibition at 100 µM [10] [%] | MIC [11] [µg/mL] | MIC [12] [µg/mL] | MIC ([13]; Staphylococcus epidermidis, all of the test strains except for S. epidermidis) [µg/mL] | MIC [8] [µg/mL] | antibiotic activity ([13]; any of the test strains except for S. epidermidis) | antibiotic activity ([13]; highest concentration tested (36 μg/mL), every bacterial strain) |
| --- | --- | --- | --- | --- | --- | --- | --- | --- | --- | --- | --- | --- | --- | --- | --- | --- |
| CCc1[nH]c(N)nc1CCCCCc1ccccc1 [Compound 12, 5-ethyl-4-(5-phenylpentyl)-1H-imidazol-2-amine] | 8 (≈ 31.1 µM) | > 99 | 14.7 (≈ 57.1 µM) | 4 (≈ 15.5 µM) | 29.4 (≈ 114 µM) | 16 (≈ 62.2 µM) | 32 (≈ 124 µM) | 2 (≈ 7.77 µM) | 29.4 (≈ 114 µM) | 94.5 ± 0.2 | 8 (≈ 31.1 µM) | 14.7 (≈ 57.1 µM) | – | – | – | – |
| CCCc1[nH]c(N)nc1CCCCCc1ccccc1 [Compound 13, 4-(5-phenylpentyl)-5-propyl-1H-imidazol-2-amine] | 4 (≈ 14.7 µM) | 95.8 ± 1.5 | 3.85 (≈ 14.2 µM) | 4 (≈ 14.7 µM) | 3.85 (≈ 14.2 µM) | 8 (≈ 29.5 µM) | 8 (≈ 29.5 µM) | 0.5 (≈ 1.84 µM) | 15.4 (≈ 56.7 µM) | 87.8 ± 0.3 | 4 (≈ 14.7 µM) | 7.7 (≈ 28.4 µM) | – | – | – | – |
| CCCCCCc1c[nH]c(N)n1.Cl [Compound 22, 4-hexyl-1H-imidazol-2-amine hydrochloride] | – | – | – | – | – | – | – | 0.04 | – | – | – | – | > 41 | – | – | – |
| CCCCc1[nH]c(N)nc1CCCCCc1ccccc1 [Compound 14, 5-butyl-4-(5-phenylpentyl)-1H-imidazol-2-amine] | 2 (≈ 7.01 µM) | 96.9 ± 1.1 | 8.05 (≈ 28.2 µM) | 2 (≈ 7.01 µM) | 4.02 (≈ 14.1 µM) | 4 (≈ 14 µM) | 4 (≈ 14 µM) | 0.25 (≈ 0.876 µM) | 8.05 (≈ 28.2 µM) | 85.4 ± 0.7 | 2 (≈ 7.01 µM) | 4.02 (≈ 14.1 µM) | – | – | – | – |
| Cc1[nH]c(N)nc1CCCCCc1ccccc1 [Compound 11, 5-methyl-4-(5-phenylpentyl)-1H-imidazol-2-amine] | 8 (≈ 32.9 µM) | 96.3 ± 0.08 | 7 (≈ 28.8 µM) | 2 (≈ 8.22 µM) | 13.9 (≈ 57.1 µM) | 8 (≈ 32.9 µM) | 8 (≈ 32.9 µM) | 1 (≈ 4.11 µM) | 27.9 (≈ 115 µM) | > 99 | 4 (≈ 16.4 µM) | 13.9 (≈ 57.1 µM) | – | – | – | – |
| Cl.Nc1nc(CCCCCc2ccccc2)c[nH]1 [Compound 23] | – | – | – | – | – | – | – | – | – | – | – | – | – | 0.05 | no notable antibiotic activity | – |
| Nc1ncc[nH]1 [Compound 21, 2-aminoimidazole, reference compound] | – | – | – | – | – | – | – | – | – | – | – | – | – | – | – | no antibiotic activity |
